Measurements from US20260232767A1, “INTERLEUKIN-23 RECEPTOR ANTAGONIST PEPTIDES FOR USE IN THE TREATMENT OF PSORIASIS” (Janssen Pharmaceutica NV, priority 2023, published 2026).

Test system: subjects with moderate-to-severe plaque psoriasis
Test: Safety, adverse events, Example 1
Settings: 16-week study
Protocol: Adverse events were reported and followed by the investigator. Any clinically relevant changes occurring during the study were recorded. Any clinically significant abnormalities persisting at the end of the study/early withdrawal were followed by the investigator until resolution or until a clinically stable condition was reached if possible. The evaluations of safety and tolerability include: physical examinations, vital signs, electrocardiograms, clinical safety laboratory assessments, review of concomitant medication, pregnancy testing, suicidal ideation evaluation via the Columbia—Suicide Severity Rating Scale, and tuberculosis evaluation.
Safety was assessed among all randomized and treated participants who received at least 1 dose of study agent (partial or complete) according to the assigned treatment received during the study. This is also referred to as the safety analysis set.

## CC(=O)NCCCC[C@@H]1NC(=O)[C@H](Cc2c[nH]c3c(C)cccc23)NC(=O)[C@H]([C@@H](C)O)NC(=O)[C@H](CC(N)=O)NC(=O)[C@@H](NC(C)=O)C(C)(C)SSC(C)(C)[C@@H](C(=O)N[C@@H](Cc2ccc(OCCN)cc2)C(=O)N[C@@H](Cc2ccc3ccccc3c2)C(=O)NC2(C(=O)N[C@@H](CCC(=O)O)C(=O)N[C@@H](CC(N)=O)C(=O)N[C@@H](Cc3cccnc3)C(=O)N(C)CC(N)=O)CCOCC2)NC1=O [IL-23 receptor antagonist peptide, Ac-[Pen]*-N-T-[W(7-Me)]-[Lys(Ac)]-[Pen]*-Phe[4-(2-aminoethoxy)]-[2-Nal]-[THP]-E-N-[3-Pal]-Sarc-NH2 (*[Pen]-[Pen]* formdisulfidebond)]
25 mg BID
  COVID-19, subjects: (19.5%)
  Diarrhea, subjects: (4.9%)
  Discontinued study agent because of adverse events, subjects: (2.3%)
  Gastrointestinal disorders, subjects: (9.8%)
  Headache, subjects: (2.4%)
  Infections and infestations, subjects: (34.1%)
  Nasopharyngitis, subjects: (7.3%)
  Nervous system disorders, subjects: (4.9%)
  Respiratory, thoracic and mediastinal disorders, subjects: 0
  Subjects with 1 or more Adverse events: (48.8%)
  Upper respiratory tract infection, subjects: 0
25 mg QD
  COVID-19, subjects: (11.6%)
  Diarrhea, subjects: (4.7%)
  Discontinued study agent because of adverse events, subjects: (7.0%)
  Gastrointestinal disorders, subjects: (7.0%)
  Headache, subjects: 0
  Infections and infestations, subjects: (34.9%)
  Nasopharyngitis, subjects: (2.3%)
  Nervous system disorders, subjects: 0
  Respiratory, thoracic and mediastinal disorders, subjects: (2.3%)
  Subjects with 1 or more Adverse events: (46.5%)
  Upper respiratory tract infection, subjects: (7.0%)
50 mg QD
  COVID-19, subjects: (7.0%)
  Diarrhea, subjects: (9.3%)
  Discontinued study agent because of adverse events, subjects: (2.3%)
  Gastrointestinal disorders, subjects: (14.0%)
  Headache, subjects: (2.3%)
  Infections and infestations, subjects: (39.5%)
  Nasopharyngitis, subjects: (18.6%)
  Nervous system disorders, subjects: (7.0%)
  Respiratory, thoracic and mediastinal disorders, subjects: (2.3%)
  Subjects with 1 or more Adverse events: (60.5%)
  Upper respiratory tract infection, subjects: 0
100 mg BID
  COVID-19, subjects: (9.5%)
  Diarrhea, subjects: (2.4%)
  Discontinued study agent because of adverse events, subjects: 0
  Gastrointestinal disorders, subjects: (16.7%)
  Headache, subjects: (2.4%)
  Infections and infestations, subjects: (26.2%)
  Nasopharyngitis, subjects: (4.8%)
  Nervous system disorders, subjects: (4.8%)
  Respiratory, thoracic and mediastinal disorders, subjects: (4.8%)
  Subjects with 1 or more Adverse events: (61.9%)
  Upper respiratory tract infection, subjects: (4.8%)
100 mg QD
  COVID-19, subjects: (7.0%)
  Diarrhea, subjects: (2.3%)
  Discontinued study agent because of adverse events, subjects: 0
  Gastrointestinal disorders, subjects: (9.3%)
  Headache, subjects: (7.0%)
  Infections and infestations, subjects: (16.3%)
  Nasopharyngitis, subjects: (2.3%)
  Nervous system disorders, subjects: (7.0%)
  Respiratory, thoracic and mediastinal disorders, subjects: (7.0%)
  Subjects with 1 or more Adverse events: (44.2%)
  Upper respiratory tract infection, subjects: 0
  Deaths, MACE or malignancies: no deaths, MACE or malignancies
Combined doses
  COVID-19, subjects: (10.8%)
  Diarrhea, subjects: (4.7%)
  Discontinued study agent because of adverse events, subjects: (2.3%)
  Gastrointestinal disorders, subjects: (11.3%)
  Headache, subjects: (2.8%)
  Infections and infestations, subjects: (30.2%)
  Nasopharyngitis, subjects: (7.1%)
  Nervous system disorders, subjects: (4.7%)
  Respiratory, thoracic and mediastinal disorders, subjects: (3.3%)
  Subjects with 1 or more Adverse events: (52.4%)
  Upper respiratory tract infection, subjects: (2.4%)
Across treatment groups
  Dose dependence of occurrence of AEs: no evidence of dose-dependent increase
All treatment groups
  Tolerability: well-tolerated
